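Five compound concentrations were applied to cells in 96-well plates for 48 hours; endpoints were derived by simple linear interpolation of the resulting dose-response curve. TGI denotes the concentration required for complete inhibition of growth.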
What was measured:
Assay in all cases: NCI tumour cell line growth inhibition, 48 h
SNB-19 CNS = system: SNB-19 CNS
HOP-92 NSCLC = system: HOP-92 NSCLC
CCRF-CEM leukemia = system: CCRF-CEM leukemia
SK-OV-3 ovarian = system: SK-OV-3 ovarian
MDA-MB-435 = system: MDA-MB-435
HCT-15 colon = system: HCT-15 colon
TK-10 renal = system: TK-10 renal
SR leukemia = system: SR leukemia
NCI/ADR-RES ovarian = system: NCI/ADR-RES ovarian
HT29 colon = system: HT29 colon
SF-295 CNS = system: SF-295 CNS
HCT-116 colon = system: HCT-116 colon
A549 NSCLC = system: A549 NSCLC
MDA-MB-231 breast = system: MDA-MB-231 breast
UO-31 renal = system: UO-31 renal
SF-268 CNS = system: SF-268 CNS
MDA-N = system: MDA-N
U251 CNS = system: U251 CNS
NCI-H226 lung = system: NCI-H226 lung
UACC-62 melanoma = system: UACC-62 melanoma
MOLT-4 leukemia = system: MOLT-4 leukemia
BT-549 breast = system: BT-549 breast
HL-60(TB) leukemia = system: HL-60(TB) leukemia
SF-539 CNS = system: SF-539 CNS
OVCAR-5 ovarian = system: OVCAR-5 ovarian
786-0 renal = system: 786-0 renal
ACHN renal = system: ACHN renal
NCI-H522 lung = system: NCI-H522 lung
LOX IMVI melanoma = system: LOX IMVI melanoma
K-562 leukemia = system: K-562 leukemia
SK-MEL-2 melanoma = system: SK-MEL-2 melanoma
T-47D breast = system: T-47D breast
NCI-H23 lung = system: NCI-H23 lung
PC-3 prostate = system: PC-3 prostate
MALME-3M melanoma = system: MALME-3M melanoma
OVCAR-3 ovarian = system: OVCAR-3 ovarian
SW-620 colon = system: SW-620 colon
HS 578T breast = system: HS 578T breast
SN12C renal = system: SN12C renal
UACC-257 melanoma = system: UACC-257 melanoma
M14 melanoma = system: M14 melanoma
NCI-H460 lung = system: NCI-H460 lung
HCC-2998 colon = system: HCC-2998 colon
SNB-75 CNS = system: SNB-75 CNS
SK-MEL-28 melanoma = system: SK-MEL-28 melanoma
MCF7 breast = system: MCF7 breast
DU-145 prostate = system: DU-145 prostate
COLO 205 colon = system: COLO 205 colon
SK-MEL-5 melanoma = system: SK-MEL-5 melanoma
EKVX NSCLC = system: EKVX NSCLC
KM12 colon = system: KM12 colon
OVCAR-8 ovarian = system: OVCAR-8 ovarian
OVCAR-4 ovarian = system: OVCAR-4 ovarian
HOP-62 NSCLC = system: HOP-62 NSCLC
IGROV1 ovarian = system: IGROV1 ovarian
CAKI-1 renal = system: CAKI-1 renal

O=C1CS(=O)(=O)C(c2cccc(Oc3ccccc3)c2)N1c1cc(Cl)ccc1Cl (centres undefined)
TGI (SNB-19 CNS): 57 µM | TGI (HOP-92 NSCLC): 38.8 µM | TGI (CCRF-CEM leukemia): > 100 µM | TGI (SK-OV-3 ovarian): 48.9 µM | TGI (MDA-MB-435): 25.9 µM | TGI (HCT-15 colon): 69.9 µM | TGI (TK-10 renal): 90.6 µM | TGI (SR leukemia): > 100 µM | TGI (NCI/ADR-RES ovarian): 77.8 µM | TGI (HT29 colon): 47.8 µM | TGI (SF-295 CNS): 62.1 µM | TGI (HCT-116 colon): 41.9 µM | TGI (A549 NSCLC): > 100 µM | TGI (MDA-MB-231 breast): 38.4 µM | TGI (UO-31 renal): 43.7 µM | TGI (SF-268 CNS): 52.8 µM | TGI (MDA-N): 35.1 µM | TGI (U251 CNS): 29.1 µM | TGI (NCI-H226 lung): 41.5 µM | TGI (UACC-62 melanoma): 31.9 µM | TGI (MOLT-4 leukemia): > 100 µM | TGI (BT-549 breast): 41.3 µM | TGI (HL-60(TB) leukemia): 81.8 µM | TGI (SF-539 CNS): 44.6 µM | TGI (OVCAR-5 ovarian): > 100 µM | TGI (786-0 renal): 34.8 µM | TGI (ACHN renal): 43.1 µM | TGI (NCI-H522 lung): 56 µM | TGI (LOX IMVI melanoma): 28.2 µM | TGI (K-562 leukemia): > 100 µM | TGI (SK-MEL-2 melanoma): 30.2 µM | TGI (T-47D breast): 53.2 µM | TGI (NCI-H23 lung): > 100 µM | TGI (PC-3 prostate): 32 µM | TGI (MALME-3M melanoma): > 100 µM | TGI (OVCAR-3 ovarian): 35.1 µM | TGI (SW-620 colon): > 100 µM | TGI (HS 578T breast): > 100 µM | TGI (SN12C renal): 39 µM | TGI (UACC-257 melanoma): 55.9 µM | TGI (M14 melanoma): 43.1 µM | TGI (NCI-H460 lung): 53.5 µM | TGI (HCC-2998 colon): 37.1 µM | TGI (SNB-75 CNS): 33.1 µM | TGI (SK-MEL-28 melanoma): 70.4 µM | TGI (MCF7 breast): 35.4 µM | TGI (DU-145 prostate): 43.3 µM | TGI (COLO 205 colon): > 100 µM | TGI (SK-MEL-5 melanoma): 31.2 µM | TGI (EKVX NSCLC): > 100 µM | TGI (KM12 colon): 39.4 µM | TGI (OVCAR-8 ovarian): 43.9 µM

O=C1/C(=C/c2cccc([N+](=O)[O-])c2)Sc2scc(-c3ccc([N+](=O)[O-])cc3)[n+]21
TGI (SNB-19 CNS): 46.1 µM | TGI (HOP-92 NSCLC): 72.3 µM | TGI (SK-OV-3 ovarian): 90.5 µM | TGI (MDA-MB-435): 37.5 µM | TGI (HCT-15 colon): 33.6 µM | TGI (NCI/ADR-RES ovarian): 89.2 µM | TGI (HT29 colon): 38.8 µM | TGI (OVCAR-4 ovarian): > 100 µM | TGI (SF-295 CNS): 53.6 µM | TGI (HCT-116 colon): 34.9 µM | TGI (A549 NSCLC): > 100 µM | TGI (MDA-MB-231 breast): 72.5 µM | TGI (UO-31 renal): 24.1 µM | TGI (HOP-62 NSCLC): 38.3 µM | TGI (MDA-N): > 100 µM | TGI (U251 CNS): > 100 µM | TGI (NCI-H226 lung): > 100 µM | TGI (UACC-62 melanoma): 48.5 µM | TGI (MOLT-4 leukemia): > 100 µM | TGI (BT-549 breast): 28.8 µM | TGI (SF-539 CNS): > 100 µM | TGI (OVCAR-5 ovarian): 51.2 µM | TGI (786-0 renal): 38.3 µM | TGI (ACHN renal): 49.9 µM | TGI (LOX IMVI melanoma): 46.3 µM | TGI (SK-MEL-2 melanoma): 70 µM | TGI (T-47D breast): > 100 µM | TGI (NCI-H23 lung): 35.5 µM | TGI (PC-3 prostate): > 100 µM | TGI (OVCAR-3 ovarian): > 100 µM | TGI (SW-620 colon): > 100 µM | TGI (IGROV1 ovarian): 53.6 µM | TGI (SN12C renal): 40.9 µM | TGI (UACC-257 melanoma): 69.8 µM | TGI (CAKI-1 renal): 51.5 µM | TGI (M14 melanoma): > 100 µM | TGI (NCI-H460 lung): 24.6 µM | TGI (HCC-2998 colon): 29.9 µM | TGI (SNB-75 CNS): 32.1 µM | TGI (SK-MEL-28 melanoma): 62.3 µM | TGI (MCF7 breast): > 100 µM | TGI (DU-145 prostate): > 100 µM | TGI (COLO 205 colon): > 100 µM | TGI (SK-MEL-5 melanoma): > 100 µM | TGI (EKVX NSCLC): 61.1 µM | TGI (KM12 colon): 33.3 µM | TGI (OVCAR-8 ovarian): > 100 µM

Source: PubChem BioAssay (NCI)
